We go through 17 compounds from patent publication US20210300943A1, “OGA INHIBITOR COMPOUNDS” (Janssen Pharmaceutica NV, priority 2018, published 2021).

Structures are written as SMILES. A value given as a limit tells only on which side of the number the result lay.

The target of one assay is T1, recombinant human Meningioma Expressed Antigen 5 (MGEA5), also referred to as O-GlcNAcase (OGA) (Homo sapiens, UniProt O60502).
T1 construct: Full length OGA enzyme was purchased at OnGene (cat #TP322411); purchased OnGene (so in the source)
T1 sequence (O60502 1-916): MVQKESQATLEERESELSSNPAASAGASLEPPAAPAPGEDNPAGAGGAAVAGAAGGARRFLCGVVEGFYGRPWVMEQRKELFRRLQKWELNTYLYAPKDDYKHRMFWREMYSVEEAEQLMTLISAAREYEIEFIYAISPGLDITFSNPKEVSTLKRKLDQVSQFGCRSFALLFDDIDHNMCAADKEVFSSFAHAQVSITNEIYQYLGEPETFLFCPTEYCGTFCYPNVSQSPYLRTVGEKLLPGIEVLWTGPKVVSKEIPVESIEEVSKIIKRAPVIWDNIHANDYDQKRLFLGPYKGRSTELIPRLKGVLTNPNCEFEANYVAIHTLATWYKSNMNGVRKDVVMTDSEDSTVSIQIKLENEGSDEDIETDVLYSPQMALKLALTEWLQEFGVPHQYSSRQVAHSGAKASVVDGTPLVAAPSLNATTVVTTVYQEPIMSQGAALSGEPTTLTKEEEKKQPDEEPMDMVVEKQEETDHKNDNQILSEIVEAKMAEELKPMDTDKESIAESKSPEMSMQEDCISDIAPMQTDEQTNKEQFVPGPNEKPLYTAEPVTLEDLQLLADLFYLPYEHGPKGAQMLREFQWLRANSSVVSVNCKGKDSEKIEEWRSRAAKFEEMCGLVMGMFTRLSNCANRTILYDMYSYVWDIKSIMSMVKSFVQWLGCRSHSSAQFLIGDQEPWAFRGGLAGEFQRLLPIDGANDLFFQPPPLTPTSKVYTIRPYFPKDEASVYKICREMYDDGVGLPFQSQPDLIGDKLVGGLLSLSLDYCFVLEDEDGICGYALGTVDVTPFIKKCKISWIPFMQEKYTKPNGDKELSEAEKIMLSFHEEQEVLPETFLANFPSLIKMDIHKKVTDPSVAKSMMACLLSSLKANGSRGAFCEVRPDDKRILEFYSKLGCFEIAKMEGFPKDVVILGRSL
Description: OGA biochemical assay (inhibition of FM-GlcNAc hydrolysis, fluorescence). Conditions: maximal effect, read-out: Enzymatic Emax (%). From the text:
The assay is based on the inhibition of the hydrolysis of fluorescein mono-β-D-N-Acetyl-Glucosamine (FM-GlcNAc) (Mariappa et al. 2015, Biochem J 470:255) by the recombinant human Meningioma Expressed Antigen 5 (MGEA5), also referred to as O-GlcNAcase (OGA). The hydrolysis FM-GlcNAc (Marker Gene technologies, cat #M1485) results in the formation of β-D-N-glucosamineacetate and fluorescein. The fluorescence of the latter can be measured at excitation wavelength 485 nm and emission wavelength 538 nm. An increase in enzyme activity results in an increase in fluorescence signal. Full length OGA enzyme was purchased at OnGene (cat #TP322411). The enzyme was stored in 25 mM Tris.HCl, pH 7.3, 100 mM glycine, 10% glycerol at −20° C. Thiamet G and GlcNAcStatin were tested as reference compounds (Yuzwa et al. 2008 Nature Chemical Biology 4:483; Yuzwa et al. 2012 Nature Chemical Biology 8:393). The assay was performed in 200 mM Citrate/phosphate buffer supplemented with 0.005% Tween-20. 35.6 g Na2HPO42H2O (Sigma, #C0759) were dissolved in 1 L water to obtain a 200 mM solution. 19.2 g citric acid (Merck, #1.06580) was dissolved in 1 L water to obtain a 100 mM solution. pH of the sodiumphosphate solution was adjusted with the citric acid solution to 7.2. The buffer to stop the reaction consists of a 500 mM Carbonate buffer, pH 11.0. 734 mg FM-GlcNAc were dissolved in 5.48 mL DMSO to obtain a 250 mM solution and was stored at −20° C. OGA was used at a 2 nM concentration and FM-GlcNAc at a 100 uM final concentration. Dilutions were prepared in assay buffer.
50 nl of a compound dissolved in DMSO was dispensed on Black Proxiplate TM 384 Plus Assay plates (Perkin Elmer, #6008269) and 3 μl fl-OGA enzyme mix added subsequently. Plates were pre-incubated for 60 min at room temperature and then 2 μl FM-GlcNAc substrate mix added. […] Plates were briefly centrifuged for 1 min at 1000 rpm and incubate at room temperature for 6 h. To stop the reaction 5 μl STOP buffer were added and plates centrifuge again 1 min at 1000 rpm. Fluorescence was quantified in the Thermo Scientific Fluoroskan Ascent or the PerkinElmer EnVision with excitation wavelength 485 nm and emission wavelength 538 nm.
For analysis a best-fit curve is fitted by a minimum sum of squares method. From this an IC50 value and Hill coefficient was obtained. High control (no inhibitor) and low control (saturating concentrations of standard inhibitor) were used to define the minimum and maximum values.
For the compound `Cc1cc([C@@H]2CCCN([C@H](C)c3ccc4c(c3)OCC4)C2)cc(C)n1` (single isomer, unassigned) [Product 6], the Emax came to 101%.

In the case of `Cc1cc([C@H]2CCCN([C@@H](C)c3ccc4c(c3)OCC4)C2)cc(C)n1` (single isomer, unassigned) [Product 5], the Emax was found to be 102%.

Regarding `Cc1cc(OC[C@@H]2CCCN(C(C)c3ccc4c(n3)OCCO4)C2)cc(C)n1` (mixture of isomers) [Product 20], the Emax came to 98%.

In the case of `Cc1cc([C@@H]2CCCN([C@@H](C)c3cc4c(cc3F)OCCO4)C2)cc(C(F)(F)F)n1` (single isomer, unassigned) [Product 143], the Emax is 87%.

Regarding `Cc1cc(C[C@H]2CCCN(C(C)c3cnc4c(c3)OCCN4)C2)cc(C)n1` (single isomer, unassigned) [Product 51], the Emax turned out to be 101%.

`COc1cc(NC[C@H]2CCCN(C(C)c3ccc4c(n3)OCCO4)C2)cc(C)n1` (single isomer, unassigned) [Product 25]: the Emax worked out at 103%.

Take `COc1cc(NC[C@@H]2CCCN(C(C)c3ccc4c(n3)OCCO4)C2)cc(C)n1` (single isomer, unassigned) [Product 28]: the Emax worked out at 99%.

`COc1cc(C[C@H]2CCCN([C@@H](C)c3ccc4c(n3)OCCO4)C2)cc(C)n1` [Product 65]: the Emax is 102%.

On to `Cc1cc(C[C@H]2CCCN(Cc3cnc4c(c3)OCC(=O)N4)C2)cc(C)n1` [Product 55], for which the Emax is 90%.

Take `COc1cc(NC[C@@H]2CCCN(C(C)c3ccc4c(n3)OCCO4)C2)cc(C)n1` (mixture of isomers) [Product 27]: the maximum response (Emax) turned out to be 102%.

For `CC(c1ccc2c(n1)OCCO2)N1CCCC(Oc2ncc(F)cc2F)C1` (stereo not shown) [Product 134], the Emax is 96%.

As for `Cc1cc(C[C@H]2CCCN(C(C)c3ccc4c(n3)OCCO4)C2)cc(C)n1` (single isomer, unassigned) [Product 45], the maximal response (Emax) was 98%.

For `Cc1cc(C[C@H]2CCCN(C(C)c3ccc4c(c3)OCC(=O)N4)C2)cc(C)n1` (mixture of isomers) [Product 58], the Emax stood at 102%.

With `Cc1cc(C[C@H]2CCCN(C(C)c3ccc4c(n3)OCC(=O)N4C)C2)cc(C)n1` (mixture of isomers) [Product 62], the Emax stood at 77%.

Turning to `Cc1cc(NC[C@H]2CCCN([C@H](C)c3ccc4c(n3)OCCO4)C2)cc(C(F)(F)F)n1` (single isomer, unassigned) [Product 32], the Emax amounted to 99%.

As to `Cc1cc(C[C@H]2CCCN(Cc3ccc4c(n3)OCC(=O)N4)C2)cc(C)n1` [Product 54], the Emax was 78%.

Turning to `Cc1cc(C[C@H]2CCCN(Cc3cnc4c(c3)OCC(=O)N4C)C2)cc(C)n1` [Product 127], the Emax is 10%.

Still in this assay, the particulars now being: read-out: Enzymatic hOGA, pIC50 (converted).
Turning to `Cc1cc([C@@H]2CCCN([C@H](C)c3ccc4c(c3)OCC4)C2)cc(C)n1` (single isomer, unassigned) [Product 6], the IC50 was 126 nM.

For the compound `Cc1cc([C@H]2CCCN([C@@H](C)c3ccc4c(c3)OCC4)C2)cc(C)n1` (single isomer, unassigned) [Product 5], the IC50 was 3.16 nM.

In the case of `Cc1cc(OC[C@@H]2CCCN(C(C)c3ccc4c(n3)OCCO4)C2)cc(C)n1` (mixture of isomers) [Product 20], the IC50 was 316 nM.

On to `Cc1cc([C@@H]2CCCN([C@@H](C)c3cc4c(cc3F)OCCO4)C2)cc(C(F)(F)F)n1` (single isomer, unassigned) [Product 143], for which the IC50 was 2510 nM.

With `Cc1cc(C[C@H]2CCCN(C(C)c3cnc4c(c3)OCCN4)C2)cc(C)n1` (single isomer, unassigned) [Product 51], the IC50 was 200 nM.

With `COc1cc(NC[C@H]2CCCN(C(C)c3ccc4c(n3)OCCO4)C2)cc(C)n1` (single isomer, unassigned) [Product 25], the IC50 was 79.4 nM.

As to `COc1cc(NC[C@@H]2CCCN(C(C)c3ccc4c(n3)OCCO4)C2)cc(C)n1` (single isomer, unassigned) [Product 28], the IC50 is 1000 nM.

On to `COc1cc(C[C@H]2CCCN([C@@H](C)c3ccc4c(n3)OCCO4)C2)cc(C)n1` [Product 65], for which the IC50 was 200 nM.

Take `Cc1cc(C[C@H]2CCCN(Cc3cnc4c(c3)OCC(=O)N4)C2)cc(C)n1` [Product 55]: the IC50 was 1260 nM.

With `COc1cc(NC[C@@H]2CCCN(C(C)c3ccc4c(n3)OCCO4)C2)cc(C)n1` (mixture of isomers) [Product 27], the IC50 is 200 nM.

Regarding `CC(c1ccc2c(n1)OCCO2)N1CCCC(Oc2ncc(F)cc2F)C1` (stereo not shown) [Product 134], the IC50 was 158 nM.

`Cc1cc(C[C@H]2CCCN(C(C)c3ccc4c(n3)OCCO4)C2)cc(C)n1` (single isomer, unassigned) [Product 45]: the IC50 is 501 nM.

In the case of `Cc1cc(C[C@H]2CCCN(C(C)c3ccc4c(c3)OCC(=O)N4)C2)cc(C)n1` (mixture of isomers) [Product 58], the IC50 is 126 nM.

Turning to `Cc1cc(C[C@H]2CCCN(C(C)c3ccc4c(n3)OCC(=O)N4C)C2)cc(C)n1` (mixture of isomers) [Product 62], the IC50 is 3160 nM.

For the compound `Cc1cc(NC[C@H]2CCCN([C@H](C)c3ccc4c(n3)OCCO4)C2)cc(C(F)(F)F)n1` (single isomer, unassigned) [Product 32], the IC50 is 398 nM.

For the compound `Cc1cc(C[C@H]2CCCN(Cc3ccc4c(n3)OCC(=O)N4)C2)cc(C)n1` [Product 54], the IC50 was 3160 nM.

As to `Cc1cc(C[C@H]2CCCN(Cc3cnc4c(c3)OCC(=O)N4C)C2)cc(C)n1` [Product 127], the IC50 is greater than 10000 nM.
